Measurements as given in patent US6548553B2, “Styryl sulfone anticancer agents” (Temple University-of the Commonwealth System of Higher …, priority 1997, dated 2003).

Assays:
SKBR-3 and BT-20 cells = assay: Trypan blue exclusion viability assay, breast tumor cell lines; type: cell-based; conditions: 48 hours
Experimental: The effect of FR-20 on the growth of normal and tumor cells of breast and prostate was examine utilizing nine cell lines: NIH/3T3 and HFL (normal fibroblast cell lines); MCF-7 and 361 ([…] breast tumor cell lines); BT-20, 435 and SKBR-3 ([…] breast tumor cell lines); LnCaP (androgen sensitive prostate tumor cell line); PC-3 and DU-145 (androgen insensitive prostate tumor cell line).
The cells were grown as in Example 22, A. FR-20 was dissolved in DMSO and added to the cells at 2.5 μM and 5.0 μM concentration. To control cells, DMSO was added equivalent to the volume of solvent (DMSO) present at the highest concentration of the compound. The activity of the compound was evaluated after 48 hours by Trypan blue exclusion. […] Nearly 50% of SKBR-3 and BT-20 cells were dead at 2.5 μM and 75% at 5.0 μM concentration of the compound. […] FRI-20 had profound effect on the viability of androgen-dependent LnCaP prostate tumor cell line when compared to androgen-independent DU-145 and PC-3 prostate cell lines. At […] FRI-20, 80% of LnCaP, 40% of PC-3 and 20% of DU-145 cells were killed. At […] FRI-20, 72% of LnCaP, 47% of PC-3 and 40% of DU-145 were killed (FIG. 3B).

NIH3T3 or HFL = assay: Cell cycle analysis, normal cell lines; type: cell-based
DU145 cells = assay: Comparison with cisplatin, Trypan blue viability after 72 hours; type: cell-based; conditions: DU145, 72 hours, Trypan blue exclusion
Experimental: (§1) The killing effect of FR-20 on androgen-sensitive (LnCaP) and androgen insensitive (DU145) prostate tumor cells was compared to the effect of cisplatin (cis-diamminedichloroplatinum II), a widely used anti-prostate cancer agent. The cells were grown as in Example 26. FRI-20 or cisplatin was dissolved in DMSO and added to the cells at various concentrations. Viability was determined after 72 hours by the Trypan blue exclusion method. The concentration of FRI-20 required to completely kill LnCaP and DU145 cells was 2.5 μM and 5.0 μM, respectively. Under identical conditions, complete killing of LnCaP and DU145 cells by cisplatin required 25 μM and 15 μM concentrations, respectively.

LnCaP cells = assay: as above; type: cell-based
Experimental: as §1

DLD-1 = assay: GI50 growth inhibition, trypan blue cell count; type: cell-based, human; conditions: Homo sapiens, DLD-1; cob-rectal; 96 hours after addition
Experimental: (§2) The human carcinoma cell lines listed in Table 5 below were purchased from ATCC and grown in an appropriate growth medium containing 10% fetal bovine serum (FBS) and antibiotics. The cells were plated at a cell density of 1.0×10^5 cells per […] in 6-well dishes. The cells were treated with various concentrations of (E)-fluorostyryl-4-bromobenzylsulfone 24 hours after plating in a total volume of 1 ml of medium using dimethylsulfoxide (DMSO) as a solvent for the compound. Control cells were treated with DMSO alone. The total number of viable cells was determined 96 hours after the addition of the compound by counting the cells in each well using a hemacytometer after trypan blue staining (viable cells exclude the stain). The counts were done in duplicate and the average was graphed in FIG. 8 as a percentage of the non-treated control group.

H157 = assay: GI50 growth inhibition, trypan blue cell count; type: cell-based, human; conditions: Homo sapiens, NCI-H157; lung, non-small cell; 96 hours after addition
Experimental: as §2

MIA-PaCa-2 = assay: GI50 growth inhibition, trypan blue cell count; type: cell-based, human; conditions: Homo sapiens, MIA PaCa-2; pancreatic; 96 hours after addition
Experimental: as §2

U87 = assay: GI50 growth inhibition, trypan blue cell count; type: cell-based, human; conditions: Homo sapiens, U-87 MG; glioblastoma; 96 hours after addition
Experimental: as §2

SK-MEL-28 = assay: GI50 growth inhibition, trypan blue cell count; type: cell-based; conditions: Homo sapiens, melanoma, 96 hours after addition
Experimental: as §2

A431 = assay: GI50 growth inhibition, trypan blue cell count; type: cell-based; conditions: Homo sapiens, A-431; epidermoid; 96 hours after addition
Experimental: as §2
(§3) Applying the same protocol as in Example 34, the GI50 for compound FRI-20 treatment of the cell lines in Table 6 was determined: […]

BxPC-3 = assay: GI50 growth inhibition, trypan blue cell count; type: cell-based; conditions: Homo sapiens, pancreatic, 96 hours after addition
Experimental: as §2, §3

CAKI-1 = assay: GI50 growth inhibition, trypan blue cell count; type: cell-based; conditions: Homo sapiens, renal, 96 hours after addition
Experimental: as §2, §3

CAKI-2 = assay: GI50 growth inhibition, trypan blue cell count; type: cell-based; conditions: Homo sapiens, renal, 96 hours after addition
Experimental: as §2, §3

Daudi = assay: GI50 growth inhibition, trypan blue cell count; type: cell-based; conditions: Homo sapiens, Burkets lymphoma, 96 hours after addition
Experimental: as §2, §3

Detroit 525 = assay: GI50 growth inhibition, trypan blue cell count; type: cell-based; conditions: Homo sapiens; Turner Syndrome skin fibroblast; 96 hours after addition
Experimental: as §2, §3

H1299 = assay: GI50 growth inhibition, trypan blue cell count; type: cell-based; conditions: Homo sapiens, NCI-H1299; lung, non-small cell; 96 hours after addition
Experimental: as §2, §3

H209 = assay: GI50 growth inhibition, trypan blue cell count; type: cell-based; conditions: Homo sapiens, NCI-H209; lung, small cell; 96 hours after addition
Experimental: as §2, §3

H80 = assay: GI50 growth inhibition, trypan blue cell count; type: cell-based; conditions: Homo sapiens; glioblastoma; 96 hours after addition
Experimental: as §2, §3

HCT116 = assay: GI50 growth inhibition, trypan blue cell count; type: cell-based; conditions: Homo sapiens, HCT-116; cob-rectal; 96 hours after addition
Experimental: as §2, §3

Hs 416.T = assay: GI50 growth inhibition, trypan blue cell count; type: cell-based; conditions: Homo sapiens; squamous papilloma; 96 hours after addition
Experimental: as §2, §3

Hs 456.BT = assay: GI50 growth inhibition, trypan blue cell count; type: cell-based; conditions: Homo sapiens; benign skin lesion; 96 hours after addition
Experimental: as §2, §3

Hs-802.T = assay: GI50 growth inhibition, trypan blue cell count; type: cell-based; conditions: Homo sapiens; squamous cell carcinoma; 96 hours after addition
Experimental: as §2, §3

N417 = assay: GI50 growth inhibition, trypan blue cell count; type: cell-based; conditions: Homo sapiens, lung, small cell, 96 hours after addition
Experimental: as §2, §3

OvCar-3 = assay: GI50 growth inhibition, trypan blue cell count; type: cell-based; conditions: Homo sapiens, ovarian, 96 hours after addition
Experimental: as §2, §3

Raji = assay: GI50 growth inhibition, trypan blue cell count; type: cell-based; conditions: Homo sapiens, Burkets lymphoma, 96 hours after addition
Experimental: as §2, §3

TE 354 = assay: GI50 growth inhibition, trypan blue cell count; type: cell-based; conditions: Homo sapiens; basal cell carcinoma; 96 hours after addition
Experimental: as §2, §3

O=S(=O)(/C=C/c1ccc(F)cc1)Cc1ccc(Cl)cc1 [Example 11, E-4-fluorostyryl 4-chlorobenzyl Sulfone]
dead cells (SKBR-3 and BT-20 cells; 2.5 µM): ~50% | dead cells (SKBR-3 and BT-20 cells; 5.0 µM): 75% | effect on cell cycle progression (NIH3T3 or HFL): failed to produce a similar effect on cell cycle progression | concentration required to completely kill cells (DU145 cells): 5.0 µM | concentration required to completely kill cells (LnCaP cells; LnCaP, 72 hours, Trypan blue exclusion): 2.5 µM | activity relative to cisplatin in killing prostate tumor cells (LnCaP cells; both LnCaP and DU145, 72 hours): at least tenfold more active than cisplatin | GI50 (DLD-1): 1 µM | GI50 (H157): 1.5 µM | GI50 (MIA-PaCa-2): 0.5 µM | GI50 (U87): 2 µM | GI50 (SK-MEL-28): 2 µM | GI50 (A431): 0.8 µM | GI50 (BxPC-3): 0.5 µM | GI50 (CAKI-1): 1.5 µM | GI50 (CAKI-2): 1 µM | GI50 (Daudi): 2 µM | GI50 (Detroit 525): 3 µM | GI50 (H1299): 2 µM | GI50 (H209): 1 µM | GI50 (H80): 1.5 µM | GI50 (HCT116): 1 µM | GI50 (Hs 416.T): 4 µM | GI50 (Hs 456.BT): 3 µM | GI50 (Hs-802.T): 4 µM | GI50 (N417): 1 µM | GI50 (OvCar-3): 1.5 µM | GI50 (Raji): 2 µM | GI50 (TE 354): 4 µM
